# Tests used:
# [1] = rotorod performance test (R.R.), neurotoxicity and CNS impairment, as ratio to Ach; conditions: mouse, in vivo; ratio of rotorod (R.R.):Ach ED50's; Ach ED50 on oral administration
# Source text: (§1) The test procedures used to determine the analgesic activity of the compounds have been described in detail in the prior art and are as follows: The acetylcholine-induced abdominal constriction test, which is a primary analgesic screening test designed to measure the ability of a test agent to suppress acetylcholine-induced abdominal constriction in mice, described by Collier et al., Brit. J. Pharmacol, Chemotherap. 32, 295 (1968) and the rotorod performance test, which is a test designed to measure neurotoxicity of a test compound, described by Dunham et al., J. Pharm. Sci. 46, 206-209 (1957).
# (§2) The 4-arylcarbonyl-1-[(4-morpholinyl)-lower-alkyl]-1H-indoles of the invention were tested in the acetylcholine-induced abdominal constriction test (Ach), which gives a measure of antinociceptive activity, and the rotorod assay (R.R.), which gives a measure of neurotoxicity and CNS impairment. The results, expressed in terms of the ED50 's obtained on oral administration in the acetylcholine test and as the ratio of the rotorod (R.R.):Ach ED50 's, are given in the following table: […]
# [2] = test system: acetylcholine-induced abdominal constriction in mice; test: acetylcholine-induced abdominal constriction test (Ach), antinociceptive activity; type: in vivo; conditions: for ED50: Mus musculus, oral administration
# Source text: as §1, §2
structure (smiles),measurement,setting,value
"COc1ccc(C(=O)c2cccc3c2ccn3CCN2CCOCC2)cc1.Cl [Ex. 1A, 4-(4-methoxybenzoyl)-1-[2-(4-morpholinyl)ethyl]-1H-indole hydrochloride]",selectivity ratio,[1],3.1
same,Ach (percent effect),"[2]; 93%/100(s.c.): at 100 (dose unit not given), s.c.",93%
same,ED50,[2],46 mg/kg
"COc1ccc(C(=O)c2cccc3c2ccn3CCCN2CCOCC2)cc1.Cl [Ex. 1B, 4-(4-methoxybenzoyl)-1-[3-(4-morpholinyl)propyl]-1H-indole hydrochloride]",selectivity ratio,[1],2.8
same,ED50,[2],63 mg/kg
"O=C(c1cccc2ccccc12)c1cccc2c1ccn2CCN1CCOCC1 [Ex. 1C, 1-[2-(4-morpholinyl)ethyl]-4-(1-naphthylcarbonyl)-1H-indole p-toluenesulfonate hydrate 3:1]",ED50,[2],16 mg/kg

# — US4840950A, “4-arylcarbonyl-1-[(4-morpholinyl)-lower-alkyl]-1H-indoles” (Sterling Drug Inc., priority 1987, dated 1989)
